From ChEMBL document CHEMBL2203203, “Structure-activity relationships of 2-arylamido-5,7-dihydro-4H-thieno[2,3-c]pyran-3-carboxamide derivatives as cannabinoid receptor agonists and their analgesic action” (Bioorg Med Chem Lett, 2012) come the findings set out here.

Activity calls are given as the source filed them.

Data set [1] addresses Cannabinoid receptor 2 (Mus musculus) (UniProt P47936). Kind of data set: Agonist activity at mouse CB2 receptor after 4 hrs by luciferase reporter gene assay relative to control. The format is functional. For orientation: Reporter assays use an easily measured gene product as a stand-in for the process of interest.
The target of data set [2] is Cannabinoid receptor 2 (Mus musculus, UniProt P47936). In words: Agonist activity at mouse CB2 receptor after 4 hrs by luciferase reporter gene assay. The format is functional.
A further data set is filed under the species Homo sapiens. Kind of data set: Selectivity ratio of EC50 for human CB1 receptor to EC50 for human CB2 receptor.
Data set [3] concerns the target T1, Cannabinoid receptor 1 (Homo sapiens, UniProt P21554). In words: Agonist activity at human CB1 receptor after 4 hrs by luciferase reporter gene assay. The format is functional.
Data set [4] has as its target T1, Cannabinoid receptor 1. Kind of data set: Agonist activity at human CB1 receptor after 4 hrs by luciferase reporter gene assay relative to control. The format is functional.
Data set [5] concerns the target T2, Cannabinoid receptor 2 (Homo sapiens, UniProt P34972). Kind of data set: Agonist activity at human CB2 receptor after 4 hrs by luciferase reporter gene assay relative to control. The data set is classed as functional.
Data set [6] has as its target T2, Cannabinoid receptor 2. Kind of data set: Agonist activity at human CB2 receptor after 4 hrs by luciferase reporter gene assay. The format is functional.
Data set [7] concerns the target T1, Cannabinoid receptor 1. In words: Displacement of [3H]-CP55,940 from human CB1 receptor after 60 mins by microscintillation counting analysis.
For data set [8], the target named is T2, Cannabinoid receptor 2. In words: Displacement of [3H]-CP55,940 from human CB2 receptor after 60 mins by microscintillation counting analysis. Background: Loss of bound radioactivity is the signal in a displacement assay; it reports binding, not function.
Another data set deals with Mus musculus. In words: Analgesic activity in NMRI mouse assessed as inhibition of acetic acid-induced writhing at 30 mg/kg, po measured for 30 mins relative to vehicle-treated control. The data set is classed as functional. Particulars: 0.5 h.
The target of data set [9] is Cannabinoid receptor 1 (Rattus norvegicus, UniProt P20272). In words: Displacement of [3H]-CP55,940 from rat CB1 receptor after 60 mins by microscintillation counting analysis.
Data set [10] in a line: Half life in mouse liver microsomes. The format is ADME, Microsome.
Data set [11] addresses T3, Cannabinoid receptor 2 (Rattus norvegicus, UniProt Q9QZN9).
T3 sequence (Q9QZN9 whole entry): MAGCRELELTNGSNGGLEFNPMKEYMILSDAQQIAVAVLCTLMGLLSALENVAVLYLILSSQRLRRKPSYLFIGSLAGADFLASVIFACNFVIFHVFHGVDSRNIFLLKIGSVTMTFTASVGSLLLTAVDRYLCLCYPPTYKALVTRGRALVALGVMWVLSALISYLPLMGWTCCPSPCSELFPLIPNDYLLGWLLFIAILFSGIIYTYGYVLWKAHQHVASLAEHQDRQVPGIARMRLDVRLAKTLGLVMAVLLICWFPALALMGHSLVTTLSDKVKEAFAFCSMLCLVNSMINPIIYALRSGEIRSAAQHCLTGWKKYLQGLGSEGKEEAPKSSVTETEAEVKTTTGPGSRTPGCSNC
Kind of data set: Displacement of [3H]-CP55,940 from rat CB2 receptor after 60 mins by microscintillation counting analysis.

Data set [12] can be described thus: Half life in rat liver microsomes. The data set is classed as ADME, Microsome. Background: Microsomes from liver hold many membrane-bound enzymes, among them those of drug oxidation.
The test system of data set [13] is Rattus norvegicus. In words: Analgesic activity in carrageenan-induced Sprague-Dawley rat allodynia model assessed as increase in paw withdrawal threshold at 30 to 100 mg/kg, po after 30 mins. The format is functional, organism-based.
Data set [14] has as its system Rattus norvegicus. In words: Analgesic activity in carrageenan-induced Sprague-Dawley rat allodynia model assessed as increase in paw withdrawal threshold at 10 to 30 mg/kg, po after 90 mins. The data set is classed as functional, organism-based.
For data set [15], the system named is Rattus norvegicus. Kind of data set: Analgesic activity in carrageenan-induced Sprague-Dawley rat allodynia model assessed as effect on paw withdrawal threshold at 10 mg/kg, po after 30 mins. The data set is classed as functional, organism-based. Set-up: dose 10 mg/kg.
Data set [16] in a line: Oral bioavailability in rat at 3 mg/kg. The data set is classed as ADME, organism-based. Particulars: in vivo.
Data set [17] in a line: Tmax in rat at 3 mg/kg, po. The format is ADME, organism-based. Set-up: dose 3 mg/kg, route oral. Particulars: in vivo.
Data set [18] can be described thus: Clearance in rat at 1 mg/kg, iv. Set-up: dose 1 mg/kg, route intravenous. The data set is classed as ADME, organism-based. The note with it: in vivo.
The nature of data set [19]: AUC in rat at 1 mg/kg, iv. The data set is classed as ADME, organism-based. Also noted: dose 1 mg/kg, route intravenous. Particulars: plasma.
Data set [20] in a line: Half life in human liver microsomes. The format is ADME, Microsome.
The nature of data set [21]: Volume of distribution at steady state in rat at 1 mg/kg, iv. The data set is classed as ADME, organism-based. Also noted: dose 1 mg/kg, route intravenous. The note with it: in vivo, read-out: Vdss.
Data set [22] can be described thus: Half life in rat at 3 mg/kg, po. Also noted: dose 3 mg/kg, route oral. The format is ADME, organism-based. The note with it: in vivo.
Data set [23] is described as follows: Half life in rat at 1 mg/kg, iv. Particulars: in vivo. Also noted: dose 1 mg/kg, route intravenous. The format is ADME, organism-based.

T2 sequence (P34972 whole entry): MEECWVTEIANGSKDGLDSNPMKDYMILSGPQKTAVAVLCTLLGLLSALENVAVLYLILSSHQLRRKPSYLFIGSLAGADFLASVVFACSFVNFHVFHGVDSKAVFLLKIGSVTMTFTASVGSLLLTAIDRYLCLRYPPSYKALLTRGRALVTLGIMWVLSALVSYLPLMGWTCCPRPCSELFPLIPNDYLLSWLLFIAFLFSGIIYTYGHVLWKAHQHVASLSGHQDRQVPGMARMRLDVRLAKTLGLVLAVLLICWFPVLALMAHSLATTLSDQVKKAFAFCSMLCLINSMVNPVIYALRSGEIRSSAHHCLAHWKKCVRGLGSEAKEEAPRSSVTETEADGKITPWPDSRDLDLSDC
T1 sequence (P21554 whole entry): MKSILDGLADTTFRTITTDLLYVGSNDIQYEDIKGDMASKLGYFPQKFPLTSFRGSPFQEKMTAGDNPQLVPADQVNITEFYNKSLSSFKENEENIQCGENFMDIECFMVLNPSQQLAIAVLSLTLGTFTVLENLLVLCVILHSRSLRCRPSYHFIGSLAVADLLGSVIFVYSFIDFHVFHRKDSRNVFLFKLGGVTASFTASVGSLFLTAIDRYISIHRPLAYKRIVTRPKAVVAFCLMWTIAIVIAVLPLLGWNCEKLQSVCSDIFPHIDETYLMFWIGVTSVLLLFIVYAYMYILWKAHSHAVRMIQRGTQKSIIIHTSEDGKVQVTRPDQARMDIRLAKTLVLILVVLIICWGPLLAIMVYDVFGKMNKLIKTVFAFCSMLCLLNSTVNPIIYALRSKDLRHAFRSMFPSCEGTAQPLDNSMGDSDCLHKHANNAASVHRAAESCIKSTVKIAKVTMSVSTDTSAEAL
Sequence of Cannabinoid receptor 1 (Rattus norvegicus, UniProt P20272) (P20272 whole entry): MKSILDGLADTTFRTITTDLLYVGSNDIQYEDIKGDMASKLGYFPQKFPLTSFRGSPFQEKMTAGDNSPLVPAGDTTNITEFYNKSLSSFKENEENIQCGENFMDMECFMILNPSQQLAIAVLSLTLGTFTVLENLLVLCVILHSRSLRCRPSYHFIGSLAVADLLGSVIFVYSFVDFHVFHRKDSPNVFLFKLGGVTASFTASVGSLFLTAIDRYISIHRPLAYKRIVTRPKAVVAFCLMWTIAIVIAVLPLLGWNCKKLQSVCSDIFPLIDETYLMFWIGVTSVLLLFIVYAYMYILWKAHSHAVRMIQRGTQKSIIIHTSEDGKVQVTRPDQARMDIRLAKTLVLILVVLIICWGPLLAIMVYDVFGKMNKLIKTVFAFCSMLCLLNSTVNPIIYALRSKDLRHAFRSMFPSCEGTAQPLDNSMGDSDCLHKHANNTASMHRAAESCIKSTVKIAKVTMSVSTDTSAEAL
Sequence of Cannabinoid receptor 2 (Mus musculus) (P47936 whole entry): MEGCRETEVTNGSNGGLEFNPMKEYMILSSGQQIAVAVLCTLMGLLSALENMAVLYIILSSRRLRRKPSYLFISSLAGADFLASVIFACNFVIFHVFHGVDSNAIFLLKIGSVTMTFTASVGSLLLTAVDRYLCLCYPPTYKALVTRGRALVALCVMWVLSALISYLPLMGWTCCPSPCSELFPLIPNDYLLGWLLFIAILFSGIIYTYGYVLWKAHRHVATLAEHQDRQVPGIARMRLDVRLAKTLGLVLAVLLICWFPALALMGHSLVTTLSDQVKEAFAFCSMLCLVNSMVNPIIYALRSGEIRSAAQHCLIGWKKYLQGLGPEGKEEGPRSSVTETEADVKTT
Sequence of Cannabinoid receptor 2 (Mus musculus, UniProt P47936) (P47936 whole entry): as above

For `O=C(Nc1sc2c(c1C(=O)N1CCOCC1)CCCC2)c1ccccc1Cl`, the figures for the Efficacy (in [1]; at Cannabinoid receptor 1 [4]; at Cannabinoid receptor 2 [5]) were 107%, 77% and 95%, respectively. Moreover, the results for the EC50 at Cannabinoid receptor 2 [2], at Cannabinoid receptor 1 [3] and on Cannabinoid receptor 2 [6] were 50 nM, 251 nM and 10 nM, respectively. Besides, the Ratio EC50 in the data set filed under Homo sapiens worked out at 25.

On to `O=C(Nc1sc2c(c1C(=O)N1CCCCC1)CCOC2)c1ccccc1C(F)(F)F`, for which the Ki was 11.7 µM at Cannabinoid receptor 1 [7], 241 nM at Cannabinoid receptor 2 [8], 15.1 µM at Cannabinoid receptor 1 [9] and 1610 nM on Cannabinoid receptor 2 [11]. Further, in the data set listed under Homo sapiens, the Ratio EC50 worked out at 204. The values for the EC50 at Cannabinoid receptor 1 [3] and on Cannabinoid receptor 2 [6] were 607 nM and 3 nM, respectively. In addition, the Efficacy on Cannabinoid receptor 1 [4] is 93%; on Cannabinoid receptor 2 [5], 99%. Moreover, the inhibition in vivo at 30 mg/kg in the data set with Mus musculus was 32%. The half-life in data set [10] amounted to 15.5 min; in [12] it was 5.28 min.

For the molecule `O=C(Nc1sc2c(c1C(=O)N1CC(F)(F)C1)CCOC2)c1c(F)cccc1C(F)(F)F`, the result with Rattus norvegicus [13] and in the data set with Rattus norvegicus [14] was Active. The outcome with Rattus norvegicus [15] was inactive. This molecule also came in with a bioavailability in [16] of 8%. Besides, the Tmax in data set [17] is 1 h. Also, in [18], the clearance is 102 mL/min/kg. The molecule also returned an AUC in data set [19] of 165 ng·h/mL. In addition, the half-life in [20] is 25.4 min; in data set [22], 534 min; in data set [23], 30 min; in data set [10], 51.3 min; in data set [12] it was 14.2 min. The Ki came to 11.1 µM on Cannabinoid receptor 1 [7], 444 nM on Cannabinoid receptor 2 [8], 13.5 µM at Cannabinoid receptor 1 [9] and 630 nM on Cannabinoid receptor 2 [11]. Moreover, the Ratio EC50 in the data set listed under Homo sapiens worked out at 122. Moreover, the EC50 was determined as 798 nM at Cannabinoid receptor 1 [3] and 6.5 nM on Cannabinoid receptor 2 [6]. Further, the Efficacy was 83% on Cannabinoid receptor 1 [4] and 96% on Cannabinoid receptor 2 [5]. Also, the Vd in data set [21] is 3.61 L/kg. The inhibition in vivo at 30 mg/kg with Mus musculus came to 38%.

What is called EC50 is the concentration at which the effect is half-maximal. Low values mean a more potent agent, high ones a less potent agent. A word on the Ki: it is the dissociation constant of the complex between target and ligand, obtained from inhibition or displacement. High values mean weaker binding, low ones tighter binding. By inhibition in vivo is commonly meant how much of the control response was suppressed. What is called half-life is how long it takes for the measured level to halve. As a reminder, the bioavailability is the share of a dose that reaches the circulation, judged against a reference dose that is usually intravenous. What is called Tmax is the time at which the peak concentration occurs. The term clearance denotes a measure of how efficiently the substance is removed, as volume per time. By AUC is commonly meant concentration integrated over time. A lower AUC goes with low exposure.
